Data taken from PubChem BioAssay (NCI).
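Following 48 hours of exposure in 96-well plates, responses at five concentrations were used to interpolate endpoints linearly. TGI: total growth inhibition.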

Assays:
Experiment in all cases: NCI tumour cell line growth inhibition, 48 h
RXF 393 renal = test system: RXF 393 renal
KM12 colon = test system: KM12 colon
HT29 colon = test system: HT29 colon
ACHN renal = test system: ACHN renal
UACC-257 melanoma = test system: UACC-257 melanoma
SN12C renal = test system: SN12C renal
MDA-N = test system: MDA-N
NCI/ADR-RES ovarian = test system: NCI/ADR-RES ovarian
UO-31 renal = test system: UO-31 renal
786-0 renal = test system: 786-0 renal
HL-60(TB) leukemia = test system: HL-60(TB) leukemia
A549 NSCLC = test system: A549 NSCLC
RPMI-8226 leukemia = test system: RPMI-8226 leukemia
NCI-H522 lung = test system: NCI-H522 lung
MDA-MB-231 breast = test system: MDA-MB-231 breast
HCC-2998 colon = test system: HCC-2998 colon
EKVX NSCLC = test system: EKVX NSCLC
SNB-75 CNS = test system: SNB-75 CNS
SF-295 CNS = test system: SF-295 CNS

| SMILES | TGI (RXF 393 renal) | TGI (KM12 colon) | TGI (HT29 colon) | TGI (ACHN renal) | TGI (UACC-257 melanoma) | TGI (SN12C renal) | TGI (MDA-N) | TGI (NCI/ADR-RES ovarian) | TGI (UO-31 renal) | TGI (786-0 renal) | TGI (HL-60(TB) leukemia) | TGI (A549 NSCLC) | TGI (RPMI-8226 leukemia) | TGI (NCI-H522 lung) | TGI (MDA-MB-231 breast) | TGI (HCC-2998 colon) | TGI (EKVX NSCLC) | TGI (SNB-75 CNS) | TGI (SF-295 CNS) |
| --- | --- | --- | --- | --- | --- | --- | --- | --- | --- | --- | --- | --- | --- | --- | --- | --- | --- | --- | --- |
| Oc1ccc2oc3c(O)c4ccccc4cc3c2c1 | 16.9 µM | 10.5 µM | 48.6 µM | 21 µM | > 100 µM | 8.32 µM | 9.89 µM | 9.74 µM | 15.8 µM | 20 µM | 13.5 µM | > 100 µM | 3.96 µM | 2.71 µM | 36 µM | – | – | – | – |
| O=c1oc2ccccc2c(O)c1C1c2c(c3ccccc3oc2=O)Oc2c1c(=O)oc1ccccc21 | – | 57.9 µM | 98 µM | 62.9 µM | > 100 µM | 73.3 µM | 37.3 µM | > 100 µM | 35.6 µM | > 100 µM | – | – | 87.9 µM | > 100 µM | 71.2 µM | 41.1 µM | > 100 µM | > 100 µM | – |
| O=[As](O)(O)c1ccc(N=Nc2ccc([As](=O)(O)O)cc2)cc1 | > 100 µM | > 100 µM | > 100 µM | > 100 µM | > 100 µM | > 100 µM | > 100 µM | > 100 µM | > 100 µM | > 100 µM | > 100 µM | > 100 µM | – | > 100 µM | > 100 µM | – | > 100 µM | – | > 100 µM |
| O=P1(c2ccccc2)c2ccccc2CCc2ccccc21 | > 100 µM | > 100 µM | – | – | > 100 µM | > 100 µM | > 100 µM | – | > 100 µM | > 100 µM | > 100 µM | > 100 µM | > 100 µM | > 100 µM | > 100 µM | > 100 µM | > 100 µM | > 100 µM | > 100 µM |
| NCCCCN(CCCN)C(=O)c1ccccc1 | > 100 µM | > 100 µM | > 100 µM | > 100 µM | > 100 µM | > 100 µM | – | > 100 µM | > 100 µM | > 100 µM | > 100 µM | > 100 µM | > 100 µM | > 100 µM | > 100 µM | > 100 µM | > 100 µM | > 100 µM | > 100 µM |
| C=CCCCC1SC2=C(CC)CCCN2C1=O (stereo unspecified) | > 100 µM | > 100 µM | > 100 µM | > 100 µM | 63.1 µM | > 100 µM | > 100 µM | > 100 µM | > 100 µM | > 100 µM | > 100 µM | > 100 µM | > 100 µM | > 100 µM | > 100 µM | – | > 100 µM | – | > 100 µM |
| CCCCCC[C@H]1CC(=O)C2CCCC[C@@]23CC[C@H](CCl)N13 (stereo partly specified) (tested in a mixture with another compound) | – | > 100 µM | > 100 µM | > 100 µM | > 100 µM | > 100 µM | – | – | > 100 µM | > 100 µM | 46.5 µM | > 100 µM | 61.6 µM | 37.5 µM | > 100 µM | > 100 µM | > 100 µM | 81.6 µM | > 100 µM |
| O=C(O)c1ccc(-c2nc3ccc(Cl)cc3[nH]2)cc1 | > 100 µM | > 100 µM | > 100 µM | – | – | > 100 µM | – | > 100 µM | > 100 µM | > 100 µM | > 100 µM | > 100 µM | > 100 µM | > 100 µM | > 100 µM | > 100 µM | > 100 µM | > 100 µM | > 100 µM |
| O=C(O)c1cc2cc(c1)N=Cc1ccccc1OCc1cccc(n1)COc1ccccc1C=N2 | > 25 µM | > 25 µM | > 25 µM | > 25 µM | > 25 µM | > 25 µM | 9.82 µM | 15.4 µM | > 25 µM | > 25 µM | > 25 µM | > 25 µM | 22 µM | > 25 µM | > 25 µM | – | > 25 µM | > 25 µM | 22.1 µM |
| O=C(c1ccc2ccccc2c1)N(Cc1cccnc1)C(=S)N(Cc1cccnc1)C(=O)c1ccc2ccccc2c1 | 43.9 µM | 40 µM | 81.2 µM | > 100 µM | 48.7 µM | > 100 µM | – | 88.7 µM | 97.8 µM | 73.4 µM | > 100 µM | > 100 µM | > 100 µM | > 100 µM | 44.1 µM | 32 µM | 77.1 µM | 53.5 µM | > 100 µM |
| CC(=O)OC(C)c1cc2c(s1)C(=O)c1scc(C(C)OC(C)=O)c1C2=O (stereo unspecified) | 1.31 µM | 0.359 µM | 3.53 µM | 0.628 µM | 0.463 µM | – | 0.256 µM | 0.802 µM | 0.451 µM | 0.461 µM | > 100 µM | 4.06 µM | – | 0.571 µM | – | 1.23 µM | 2.2 µM | 0.332 µM | 0.323 µM |
| COc1ccc(OC)c(C23CCCC(C2)N(C)CC3)c1 (stereo unspecified) | 61.2 µM | 33.5 µM | 49.1 µM | 78.1 µM | > 100 µM | > 100 µM | 74.6 µM | > 100 µM | > 100 µM | 85.3 µM | – | > 100 µM | 42.2 µM | – | > 100 µM | – | > 100 µM | – | 66.2 µM |
| O=c1ssc(Cl)c1Nc1c(Cl)ssc1=O | 28.3 µM | 32.3 µM | 47.5 µM | > 54.3 µM | 33.4 µM | 37.9 µM | – | 71.4 µM | 32.4 µM | 38.2 µM | 35.1 µM | 49.8 µM | 29.9 µM | 60.5 µM | 41.1 µM | 41.3 µM | 41.4 µM | 46.5 µM | > 100 µM |
| Cc1nc2ccccc2c(=O)n1NC(=O)c1ccc([N+](=O)[O-])cc1 | > 100 µM | > 100 µM | > 100 µM | > 100 µM | > 100 µM | > 100 µM | > 100 µM | – | > 100 µM | > 100 µM | > 100 µM | > 100 µM | > 100 µM | > 100 µM | > 100 µM | > 100 µM | > 100 µM | > 100 µM | > 100 µM |
| CSC1=NC(C(N)=O)C(N)N1C (stereo unspecified) | > 100 µM | > 100 µM | > 100 µM | > 100 µM | > 100 µM | > 100 µM | > 100 µM | > 100 µM | > 100 µM | > 100 µM | > 100 µM | > 100 µM | > 100 µM | > 100 µM | > 100 µM | – | > 100 µM | – | > 100 µM |
| Cc1cnc(-c2c[nH]c3ccccc23)nc1-c1c[nH]c2ccccc12 | – | 15.6 µM | 14.7 µM | 10 µM | 20.5 µM | 8.53 µM | 15.8 µM | > 100 µM | 20.8 µM | 10.7 µM | 25.1 µM | 20.2 µM | > 100 µM | – | 7.78 µM | 15.8 µM | 19.3 µM | 9.64 µM | 15.2 µM |
| COc1ccc2c(c1)c1c(n2CCN(C)C)-c2cccc(OC)c2CC1 | – | 25.4 µM | 14 µM | 38.8 µM | 37.7 µM | 35.5 µM | 26.1 µM | 47.3 µM | 35.4 µM | > 100 µM | – | 40.9 µM | 18.2 µM | 15.6 µM | 35.2 µM | 34.9 µM | 35 µM | 18.9 µM | 35.9 µM |
| COCc1cc2c(cc1/C(=C/[N+](=O)[O-])CS(=O)(=O)c1ccccc1)OCO2 | > 100 µM | – | > 100 µM | > 100 µM | > 100 µM | > 100 µM | > 100 µM | > 100 µM | > 100 µM | > 100 µM | > 100 µM | > 100 µM | > 100 µM | > 100 µM | – | > 100 µM | > 100 µM | > 100 µM | > 100 µM |
| O=C1c2ccccc2-c2c1c(-c1ccc([N+](=O)[O-])cc1)nc1ccc3ccccc3c21 | – | > 100 µM | > 100 µM | > 100 µM | > 100 µM | > 100 µM | > 100 µM | > 100 µM | > 100 µM | > 100 µM | – | > 100 µM | > 100 µM | – | > 100 µM | > 100 µM | > 100 µM | > 100 µM | > 100 µM |
| Cc1cccc(/C=C2\CCCc3ccccc3C2=O)c1 | – | 26.1 µM | 46.6 µM | 86.6 µM | 61.8 µM | 38 µM | 55 µM | 69.2 µM | > 100 µM | > 100 µM | 29 µM | > 100 µM | 45.8 µM | 33.1 µM | 48 µM | – | 57.1 µM | > 100 µM | 41.8 µM |
| O1C2C1C1OC1C1OC1C1OC21 (stereo unspecified) | – | > 100 µM | > 100 µM | > 100 µM | > 100 µM | > 100 µM | > 100 µM | > 100 µM | > 100 µM | > 100 µM | – | > 100 µM | – | > 100 µM | > 100 µM | > 100 µM | > 100 µM | > 100 µM | > 100 µM |
| COC(=O)[C@H]1C[C@H]1NC(=O)C(CC(=O)OCc1ccccc1)NC(=O)OCc1ccccc1 (stereo partly specified) | – | 77.1 µM | > 100 µM | > 100 µM | > 100 µM | > 100 µM | > 100 µM | 91.5 µM | – | > 100 µM | 39.6 µM | > 100 µM | 50.2 µM | > 100 µM | > 100 µM | > 100 µM | > 100 µM | > 100 µM | > 100 µM |
